Reference: patent US9751869B2, “LXR modulators” (BRISTOL-MYERS SQUIBB COMPANY, priority 2013, dated 2017)

Target: T1, LXRβ (Homo sapiens, UniProt P55055)
T1 construct: Co-transfection expression plasmids, comprising full-length LXRα (pCMX-h LXRα or LXRβ (pCMX-hLXRβ)); expressed in transfected cells; host or cells: CV-1 African green monkey kidney cells, transient transfection with pCMX-hLXRβ
T1 sequence (P55055 1-460): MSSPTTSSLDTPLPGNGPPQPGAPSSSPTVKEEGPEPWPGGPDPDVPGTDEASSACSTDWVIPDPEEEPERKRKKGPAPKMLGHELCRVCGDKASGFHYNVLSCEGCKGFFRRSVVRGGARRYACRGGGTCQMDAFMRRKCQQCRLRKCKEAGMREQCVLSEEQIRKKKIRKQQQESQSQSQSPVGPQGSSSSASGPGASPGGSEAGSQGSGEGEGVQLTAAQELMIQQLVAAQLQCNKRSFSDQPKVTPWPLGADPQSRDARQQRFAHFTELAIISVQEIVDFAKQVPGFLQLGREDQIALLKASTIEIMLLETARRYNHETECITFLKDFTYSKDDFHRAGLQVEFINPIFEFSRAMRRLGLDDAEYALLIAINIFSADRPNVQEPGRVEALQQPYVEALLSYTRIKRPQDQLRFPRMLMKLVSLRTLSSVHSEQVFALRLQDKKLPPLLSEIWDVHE
T1 sequence (P19793 1-462 partner): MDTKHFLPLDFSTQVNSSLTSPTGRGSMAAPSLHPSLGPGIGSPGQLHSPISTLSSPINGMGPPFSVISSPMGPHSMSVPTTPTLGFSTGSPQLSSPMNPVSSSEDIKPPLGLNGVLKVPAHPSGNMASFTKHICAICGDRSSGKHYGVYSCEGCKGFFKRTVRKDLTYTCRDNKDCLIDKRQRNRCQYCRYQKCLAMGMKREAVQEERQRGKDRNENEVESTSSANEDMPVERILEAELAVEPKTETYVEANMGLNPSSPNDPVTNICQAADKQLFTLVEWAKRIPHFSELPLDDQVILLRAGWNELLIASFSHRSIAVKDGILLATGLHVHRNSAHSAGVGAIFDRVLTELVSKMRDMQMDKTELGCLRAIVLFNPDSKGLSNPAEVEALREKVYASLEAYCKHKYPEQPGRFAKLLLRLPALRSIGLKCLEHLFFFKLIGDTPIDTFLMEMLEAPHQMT
Assay: LXR/LXRE co-transfection assay (luciferase reporter) in CV-1 cells, LXRβ
Format: cell-based
Conditions: for EC50: CV-1 cells transfected with pCMX-hLXRβ and LXREx1-Tk-Luciferase, 20 hours incubation, read-out: LXRbeta agonism EC50; for Emax: CV-1 cells, relative to maximum response of high control N-(3-((4-fluorophenyl)-(naphthalene-2-sulfonyl)amino)propyl)-2,2-dimethylpropionamide, read-out: LXRbeta % EFFICACY
Procedure, shortened: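 CV-1 cells transiently co-transfected with full-length human LXRβ, LXRE-Tk-luciferase reporter and β-galactosidase control, then exposed to compound (≤0.5% DMSO) for 20 h at 37 °C before luminescence read. EC50 from 10-point, half-log dose curves; efficacy relative to the sulfonamide high control, means of 2–3 experiments.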

| SMILES | EC50 | Emax |
| --- | --- | --- |
| Cc1nc(-c2cc(F)c(OC(F)F)c(F)c2)c(-c2cc(-c3cc(F)c(CO)c(S(C)(=O)=O)c3)ccc2-n2cc(Cl)c(C(F)(F)F)n2)o1 [Example 422, (4′-(4-chloro-3-(trifluoromethyl)-1H-pyrazol-1-yl)-3′-(4-(4-(difluoromethoxy)-3,5-difluorophenyl)-2-methyloxazol-5-yl)-3-fluoro-5-(methylsulfonyl)-[1,1′-biphenyl]-4-yl)methanol] | 4 nM | 98% |
| Cc1nc(-c2ccc(OC(F)(F)F)cc2)c(-c2cc(-c3cccc(S(C)(=O)=O)c3)ccc2-n2cc(Cl)c(C(C)(C)O)n2)o1 [Example 441, 2-(4-chloro-1-(3-(2-methyl-4-(4-(trifluoromethoxy)phenyl)oxazol-5-yl)-3′-(methylsulfonyl)-[1,1′-biphenyl]-4-yl)-1H-pyrazol-3-yl) propan-2-ol] | 176 nM | 31% |
| Cc1nc(-c2ccc(OC(F)(F)F)cc2)c(-c2cc(-c3cc(F)c(CO)c(S(C)(=O)=O)c3)ccc2-n2ccc(C(C)(F)F)n2)o1 [Example 313, (4′-(3-(1,1-difluoroethyl)-1H-pyrazol-1-yl)-3-fluoro-3′-(2-methyl-4-(4-(trifluoromethoxy)phenyl)oxazol-5-yl)-5-(methylsulfonyl)-[1,1′-biphenyl]-4-yl)methanol] | 20 nM | 59% |
| Cc1nc(-c2ccc(OC(F)(F)F)cc2)c(-c2cc(-c3cc(F)c(CO)c(S(C)(=O)=O)c3)ccc2-n2ccc(C3CC3)n2)o1 [Example 315, (4′-(3-cyclopropyl-1H-pyrazol-1-yl)-3-fluoro-3′-(2-methyl-4-(4-(trifluoromethoxy)phenyl)oxazol-5-yl)-5-(methylsulfonyl)-[1,1′-biphenyl]-4-yl)methanol] | 70 nM | 48% |
| Cc1nc(-c2ccc(C(F)(F)F)cc2)c(-c2cc(-c3cccc(S(C)(=O)=O)c3)ccc2-n2cc(Cl)c(C(F)(F)F)n2)o1 [Example 437, 5-(4-(4-chloro-3-(trifluoromethyl)-1H-pyrazol-1-yl)-3′-(methylsulfonyl)-[1,1′-biphenyl]-3-yl)-2-methyl-4-(4-(trifluoromethyl)phenyl)oxazole] | 321 nM | 49% |
| Cc1nc(-c2cc(-c3cc(F)c(CO)c(S(C)(=O)=O)c3)ccc2-c2cc(C(C)(C)CO)nn2C)c(-c2ccc3c(c2)OC(F)(F)O3)o1 [Example 62, 2-(5-(3-(5-(2,2-difluorobenzo[d][1,3]dioxol-5-yl)-2-methyloxazol-4-yl)-3′-fluoro-4′-(hydroxymethyl)-5′-(methylsulfonyl)biphenyl-4-yl)-1-methyl-1H-pyrazol-3-yl)-2-methylpropan-1-ol] | 30 nM | 72% |
| Cn1nc(C(C)(F)F)cc1-c1ccc(-c2cc(F)c(CO)c(S(C)(=O)=O)c2)cc1-n1nncc1-c1ccc(OC(F)(F)F)cc1 [Example 21, {4′-[3-(1,1-difluoroethyl)-1-methyl-1H-pyrazol-5-yl]-3-fluoro-5-(methylsulfonyl)-3′-(5-{4-[(trifluoromethyl)oxy]phenyl}-1H-1,2,3-triazol-1-yl)biphenyl-4-yl}methanol] | 22 nM | 82% |
| Cc1nc(-c2ccc3c(c2)OC(F)(F)O3)c(-c2cc(-c3cc(F)c(CO)c(S(C)(=O)=O)c3)ccc2-c2cc(C(F)(F)C(=O)NCC(F)(F)F)nn2C)o1 [Example 90, 2-(5-(3-(4-(2,2-difluorobenzo[d][1,3]dioxol-5-yl)-2-methyloxazol-5-yl)-3′-fluoro-4′-(hydroxymethyl)-5′-(methylsulfonyl)biphenyl-4-yl)-1-methyl-1H-pyrazol-3-yl)-2,2-difluoro-N-(2,2,2-trifluoroethyl)acetamide] | 58 nM | 34% |
| Cc1nc(-c2ccc3c(c2)OC(F)(F)O3)c(-c2cc(-c3cc(F)c(CO)c(S(C)(=O)=O)c3)ccc2-c2cc(C(C)(C)C#N)nn2C)o1 [Example 97, 2-(5-(3-(4-(2,2-difluorobenzo[d][1,3]dioxol-5-yl)-2-methyloxazol-5-yl)-3′-fluoro-4′-(hydroxymethyl)-5′-(methylsulfonyl)biphenyl-4-yl)-1-methyl-1H-pyrazol-3-yl)-2-methylpropanenitrile] | 48 nM | 82% |
| CC(C)c1nc(-c2cc(-c3cc(F)c(CO)c(S(C)(=O)=O)c3)ccc2-n2ccc(C(F)(F)F)n2)c(-c2ccc(OC(F)(F)F)cc2)o1 [Example 398, (3-fluoro-3′-(2-isopropyl-5-(4-(trifluoromethoxy)phenyl)oxazol-4-yl)-5-(methylsulfonyl)-4′-(3-(trifluoromethyl)-1H-pyrazol-1-yl)biphenyl-4-yl)methanol] | 38 nM | 63% |
| Cc1nc(-c2cc(-c3cccc(S(C)(=O)=O)c3)ccc2-n2ccc(C(C)(C)O)n2)c(-c2ccc(OC(F)(F)F)cc2)o1 [Example 417, 2-(1-(3-(2-methyl-5-(4-(trifluoromethoxy)phenyl)oxazol-4-yl)-3′-(methylsulfonyl)-[1,1′-biphenyl]-4-yl)-1H-pyrazol-3-yl)propan-2-ol] | 1010 nM | 16% |
| Cc1nc(-c2ccc3c(c2)OC(F)(F)O3)c(-c2cc(-c3cc(F)c(CO)c(S(C)(=O)=O)c3)ccc2-c2cc(C(C)(C)C(N)=O)nn2C)o1 [Example 65, 2-(5-(3-(4-(2,2-difluorobenzo[d][1,3]dioxol-5-yl)-2-methyloxazol-5-yl)-3′-fluoro-4′-(hydroxymethyl)-5′-(methylsulfonyl)biphenyl-4-yl)-1-methyl-1H-pyrazol-3-yl)-2-methylpropanamide] | 67 nM | 55% |
| CNS(=O)(=O)c1cccc(-c2ccc(-c3cc(C(C)(F)F)nn3C)c(-n3nncc3-c3ccc(OC(F)(F)F)cc3)c2)c1 [Example 20, 4′-[3-(1,1-difluoroethyl)-1-methyl-1H-pyrazol-5-yl]-N-methyl-3′-(5-{4-[(trifluoromethyl)oxy]phenyl}-1H-1,2,3-triazol-1-yl)biphenyl-3-sulfonamide] | 38 nM | 86% |
| Cc1nc(-c2cc(-c3cccc(S(C)(=O)=O)c3)ccc2-n2ccc(C(F)(F)F)n2)c(-c2ccc(OC(F)F)nc2)o1 [Example 394, 5-(6-(difluoromethoxy)pyridin-3-yl)-2-methyl-4-(3′-(methylsulfonyl)-4-(3-(trifluoromethyl)-1H-pyrazol-1-yl)biphenyl-3-yl)oxazole] | 16 nM | 97% |
| Cc1nc(-c2ccc(OC(F)F)cc2)c(-c2cc(-c3cc(F)c(CO)c(S(C)(=O)=O)c3)ccc2-n2ccc(C(F)(F)F)n2)o1 [Example 436, (3′-(4-(4-(difluoromethoxy)phenyl)-2-methyloxazol-5-yl)-3-fluoro-5-(methylsulfonyl)-4′-(3-(trifluoromethyl)-1H-pyrazol-1-yl)-[1,1′-biphenyl]-4-yl)methanol] | 6 nM | 61% |
| CCC(F)(F)c1cc(-c2ccc(-c3cc(F)c(CO)c(S(C)(=O)=O)c3)cc2-n2nncc2-c2ccc(OC(F)(F)F)cc2)n(C)n1 [Example 2, (4′-(3-(1,1-difluoropropyl)-1-methyl-1H-pyrazol-5-yl)-3-fluoro-5-(methylsulfonyl)-3′-(5-(4-(trifluoromethoxy)phenyl)-1H-1,2,3-triazol-1-yl)biphenyl-4-yl)methanol] | 26 nM | 89% |
| Cc1nc(-c2ccc3c(c2)OC(F)(F)O3)c(-c2cc(-c3cc(F)c(CO)c(S(C)(=O)=O)c3)ccc2-c2cc(C(F)(F)C(=O)O)nn2C)o1 [Example 75, 2-(5-(3-(4-(2,2-difluorobenzo[d][1,3]dioxol-5-yl)-2-methyloxazol-5-yl)-3′-fluoro-4′-(hydroxymethyl)-5′-(methylsulfonyl)biphenyl-4-yl)-1-methyl-1H-pyrazol-3-yl)-2,2-difluoroacetic acid] | 7670 nM | 52% |
| Cc1nc(-c2ccc(OC(F)(F)F)cc2)c(-c2cc(-c3cccc(S(C)(=O)=O)c3)ccc2-n2ccc(CC#N)n2)o1 [Example 369, 2-(1-(3-(2-methyl-4-(4-(trifluoromethoxy)phenyl)oxazol-5-yl)-3′-(methylsulfonyl)-[1,1′-biphenyl]-4-yl)-1H-pyrazol-3-yl)acetonitrile] | 226 nM | 99% |
